# pIC50: −log10 of the molar value.
# Assays:
# [1] = system: telomeric G-quadruplex DNA sequence d[AG3(T2AG3)3] (SEQ ID NO: 1); assay: CD titration of compounds into human telomeric G-quadruplex DNA (induced CD); assay type: binding
# Text: The oligonucleotides d[AG3(T2AG3)3] (SEQ ID NO: 1), d[AG3TG4AG3TG4A] (SEQ ID NO: 2), d[G4(T4G4)3] (SEQ ID NO: 3), d[(T2G4)4] (SEQ ID NO: 4), d[(GC)7] (SEQ ID NO: 5), d[[…]] (SEQ ID NO: 6), d[G2T2G2TGTG2T2G2] (SEQ ID NO: 7), d[[…]] (SEQ ID NO: 8), d[[…]] (SEQ ID NO: 9), d[[…]] (SEQ ID NO: 10), d[[…]] (SEQ ID NO: 11), d[TTAGGGT] (SEQ ID NO: 12), and d[TGGGGT] (SEQ ID NO: 13) were purchased with HPLC purification from Midland Certified Reagent Company (The Midland Certified Reagent Company, Inc., Midland, Tex., USA). The concentration of each DNA sample was determined spectrophotometrically at 260 nm using the nearest neighbor extinction coefficient.
# Stock solutions of individual dicationic polyaryl compounds were prepared in double distilled water and diluted to working concentrations immediately before use with buffer. All measurements were performed at 20° C. in a 10 mM HEPES buffer (pH 7.4) containing 3 mM EDTA and 50 mM KCl, NaCl, or LiCl. Absorbance spectra were obtained on a Varian Cary 300 BIO UV-visible spectrophotometer (Varian, Inc., Palo Alto, Calif., United States of America) in a quartz cell with a 1 cm pathlength. CD spectra were recorded using a Jasco J-810 spectrapolarimeter (Jasco, Inc., Easton, Md., United States of America) in a 1-cm cell using an instrument scanning speed of 50 nm/min with a response time of 1 s. The spectra were averaged over four scans. A buffer baseline scan was collected in the same cuvette and subtracted from the average scan for each sample. Appropriate amounts of dicationic compound stock solution or DNA were added sequentially to increase the molar ratio.
# When an achiral ligand binds tightly to a chiral host, such as DNA, a CD signal is induced in the wavelength region corresponding to the absorbance of the ligand. […] An additional negative band centered at 395 nm overlaps with the higher energy exciton band. […] Restriction of the rotational and translational freedom of the two molecules of the dimer relative to each other will cause an increase in the rotational strength of the induced CD band, resulting in a large ellipticity. See Allenmark, S., Chirality, 15, 409-422 (2003).
# Some compounds appeared to bind to the telomeric G-quadruplex DNA sequence d[AG3(T2AG3)3] […] Relative strength of the induced CD is indicated by the number of (+) marks.
# [2] = molecular target: duplex hairpin d[[…]] (SEQ ID NO: 8); assay: Surface plasmon resonance, immobilized duplex hairpin DNA; assay type: binding; settings: SPR, 25° C., HEPES buffer containing 200 mM KCl
# Procedure: Surface plasmon resonance (SPR) measurements were performed with a four-channel Biacore® 3000 optical biosensor system (Biacore International AB, Uppsala, Sweden). 5′-biotin labeled DNA was immobilized onto streptavidin-coated Biacore® SA sensor chips as previously described. See Lacy, E. R., et al., J. Amer. Chem. Soc., 124, 2153-2163 (2002); Mazur, S., et al., J. Mol. Biol., 300, 321-337 (2000); Nguyen, B., et al., Biopolymers, 63, 281-297 (2002); Wang, L., et at, Proc. Natl. Acad. Sci. USA, 97, 12-16 (2000); and Wang, L., et al., Biochemistry, 40, 2511-2521 (2001). Two flow cells were used to immobilize the
# DNA oligomer samples, while a third cell was left blank as a control. […]
# Solutions of known concentration of 8 ranging from 2 nM to 10 μM were injected through the flow cells until a constant steady-state response was obtained. […] The instrument response (RU) in the steady-state region was determined by linear averaging over a 50 second time span. The predicted maximum response per bound compound in the steady-state region (RUmax) was determined from the DNA molecular weight, the amount of DNA on the flow cell, the compound molecular weight, and the refractive index gradient ratio of the compound and DNA, as previously described. […]
# Surface plasmon resonance (SPR) was used to quantitatively evaluate the interaction between 8 and human telomeric DNA. […]
# [3] = system: Trypanosoma brucei rhodesiense (T. b. r.); assay: In vitro antiprotozoal activity against T. b. r.; assay type: cell-based
# Procedure: In vitro antiprotozoal activities were measured following established protocols. […] E., et al., Bioorg.
structure (smiles),measurement,setting,value
"N=C(N)c1ccc(-c2ccc(-c3ccc(C(=N)N)o3)o2)cc1 [Compound 8, 5′-(4-Amidinophenyl)-2,2′-bifuran-5-carboxamidine]",exciton splitting in CD spectra (in words),[1],induced exciton splitting
same,Induced CD (exciton),[1]; G-Quadruplex Affinity,+++++
same,"K, binding constant for the single site",[2],130000 M⁻¹
same,pIC50,[3],7.92
